How the values were obtained:
[1] = tested on: Human retinal pigment epithelium (RPE) cultured cells, ARPE-19, pre-loaded with A2E; experiment: A2E (lipofuscin bisretinoid) removal assay, fluorescence plate reader; format: cell-based; details: for removal of lipofuscin bisretinoids (A2E) from retinal cells: 4 mM cyclodextrin, 48 hrs, cells pre-loaded with 5 μM A2E, FIG. 2
[2] = tested on: lipofuscin (LB) in RPE of DKO mice (ABCA4 and RDH8 mutations); experiment: In vivo LB removal from eyes by intravitreal injection, RPE-eyecup autofluorescence; design: species or system mouse; details: FIG. 9; for reduction of the amount of lipofuscin vs vehicle (significance, unpaired T-test): two intravitreal injections one week apart, same doses; for total LB extracted from retinas: two intravitreal injections one week apart: 2 μl 100 mM MβCD, 1 μl 500 mM HPβCD or SBE-βCD, eyes harvested 4 days after second injection
visual acuity of mice = experiment: Visual acuity, Spatial Frequency (SF) response by OptoMotry; details: intravitreal, twice, one week apart, both eyes: 2 μl 100 mM M-βCD, 1 μl 500 mM HP-βCD or SBE-βCD, FIGS. 10A-10B
[3] = tested on: Epithelial cells pre-loaded with A2E; experiment: Stoichiometric distribution of A2E between cell lysates and supernatants; format: cell-based; details: 12.5 mM, 4 hrs, serum free media, FIG. 7
[4] = tested on: lipofuscin and A2E accumulation in ABCA4-/- mouse; details: cited from earlier work
[5] = tested on: patients diagnosed with Stargardt or AMD; details: cited from earlier work
formation of new LB = details: oral, animals; cited from earlier work
[6] = tested on: lipofuscin in RPE cells of monkey retinas; details: oral, one year; cited from earlier work
A2E-loaded RPE cultures = experiment: Fluorescence microscopy of LB removal from A2E-loaded cells; format: cell-based, human
Procedure: […] At the end of the incubation period, fluorescence of A2E inside the cells was monitored by fluorescence microscopy at 100× magnification. Cells were stained with Hoechst stain to visualize nuclei of cells that contained A2E.
FIGS. 4A-4B show the removal of LB with methyl β-Cyclodextrin as determined by fluorescence microscopy. […] Cells were stained with Hoechst stain to visualize nuclei. Fluorescence of A2E inside the cells (unextracted cells) was monitored by fluorescence microscopy at 100× magnification.
Untreated A2E-loaded RPE cultures served as negative controls. A2E-loaded RPE cultures were treated with 7.5 mM of the indicated β-Cyclodextrin compound for 48 hrs. For each cyclodextrin, three separate lots were tested. Lipofuscin (yellow) is visualized by fluorescence microscopy (488 nm/600 nm) using low magnification (10×) objective to capture a large number of cells.
Fluorescence microscopy: LBs are auto-fluorescent molecules on account of the abundant conjugated double bonds in their hydrophobic arms. When excited at 430 nm (blue light) they emit yellow-orange fluorescence peaking at 610 nm. The intensity of the fluorescence is proportional to their amounts. Hoechst blue fluorescence dye was used to stain the nucleus of cells treated with cyclodextrins. […] Each dose was assayed in triplicated and ten random fields were evaluated per well. […]

[7] = tested on: photoreceptor layer (ONL) / retina; experiment: Retina morphometry and histology (ONL thickness, H&E cross sections); format: in vivo, mouse; details: intravitreal treatment
Procedure: Morphometric analysis comparing the thickneness of the outer nuclear layer (ONL) in control and SBE-BCD treated animals was performed. The layer of photoreceoptors was selected using Photoshop and ImageJ and thickness was measured.
Stitched images were created using ZEN Blue (Zeiss) from individual fields obtained by color microscopy of hematoxylin and eosin stained paraffin-embedded cross sections of retinas from mice treated with 1 μl vehicle or Sulfo Butyl β-Cyclodextrin.
2 μl 100 mM M-βCD; 1 μl 500 mM HP-3CD; or 1 μl 500 mM SBE-βCD were injected twice, one-week apart, in both eyes and 2 μl H2O were injected intravitreally to age matched controls. To evaluate the visual toxicity of the treatment, the Spatial Frequency response (SF) was determined just before each injection and before sacrificing the mouse, i.e., four days after the second injection. SF is a cone-mediated visual response measured using an OptoMotry (OMT) chamber. Briefly, the mouse standing unrestrained on an elevated platform is surrounded by computer monitors that create a virtual cylinder with black bars on white background.

[8] = long-term oral administration, ABCA4-/-

With `COC[C@H]1O[C@@H]2O[C@H]3[C@H](OC)[C@@H](OC)[C@@H](O[C@H]4[C@H](OC)[C@@H](OC)[C@@H](O[C@H]5[C@H](OC)[C@@H](OC)[C@@H](O[C@H]6[C@H](OC)[C@@H](OC)[C@@H](O[C@H]7[C@H](OC)[C@@H](OC)[C@@H](O[C@H]8[C@H](OC)[C@@H](OC)[C@@H](O[C@H]1[C@H](OC)[C@H]2OC)O[C@@H]8COC)O[C@@H]7COC)O[C@@H]6COC)O[C@@H]5COC)O[C@@H]4COC)O[C@@H]3COC` [2,3,6-tri-O-methyl-β-Cyclodextrin, Heptakis (2,3,6-tri-O-Methyl) β-Cyclodextrin, reference compound] the “removal of lipofuscin bisretinoids (A2E) from retinal cells” value (from here on “removal of lipofuscin bisretinoids (A2E)”) [1] was “not effective in promoting LB removal”.

In the case of `COC[C@H]1O[C@@H]2O[C@H]3[C@H](O)[C@@H](OC)[C@@H](O[C@H]4[C@H](O)[C@@H](OC)[C@@H](O[C@H]5[C@H](O)[C@@H](OC)[C@@H](O[C@H]6[C@H](O)[C@@H](OC)[C@@H](O[C@H]7[C@H](O)[C@@H](OC)[C@@H](O[C@H]8[C@H](O)[C@@H](OC)[C@@H](O[C@H]1[C@H](O)[C@H]2OC)O[C@@H]8COC)O[C@@H]7COC)O[C@@H]6COC)O[C@@H]5COC)O[C@@H]4COC)O[C@@H]3COC` [2,6-di-O-methyl-β-Cyclodextrin, Heptakis (2,6-di-O-Methyl) β-Cyclodextrin, reference compound], the “removal of lipofuscin bisretinoids (A2E)” value [1] is reported as “not effective in promoting LB removal”.

For `CC(O)COC[C@H]1O[C@@H]2O[C@H]3[C@H](O)[C@@H](O)[C@@H](O[C@H]4[C@H](O)[C@@H](O)[C@@H](O[C@H]5[C@H](O)[C@@H](O)[C@@H](O[C@H]6[C@H](O)[C@@H](O)[C@@H](O[C@H]7[C@H](O)[C@@H](O)[C@@H](O[C@H]8[C@H](O)[C@@H](O)[C@@H](O[C@H]1[C@H](O)[C@H]2O)O[C@@H]8COCC(C)O)O[C@@H]7COCC(C)O)O[C@@H]6COCC(C)O)O[C@@H]5COCC(C)O)O[C@@H]4COCC(C)O)O[C@@H]3COCC(C)O` (stereo partly drawn) [2-Hydroxy Propyl β-Cyclodextrin, 2-hydroxypropyl beta-Cyclodextrin], the “removal of lipofuscin bisretinoids (A2E)” value [1] was “promoted removal of lipofuscin bisretinoids from retinal cells”, the “reduction of the amount of lipofuscin vs vehicle (significance, unpaired T-test)” value (shortened to “reduction … (significance, unpaired T-test)”) [2] was “effective” and the “visual acuity (Spatial Frequency response)” value (visual acuity of mice) was “some animals showing significant impairment of visal response”. The “distribution of A2E fluorescence between cells and supernatants” value (shortened to “distribution”) [3] was “all A2E fluorescence that was absent from cells was present in supernatants”.

For `[2H]C([2H])([2H])C(/C=C/C=C(C)/C=C/C1=C(C)CCCC1(C)C)=C\COC(C)=O` [ALK-001, deuterated vitamin A], the “visual function by electroretinogram” value ([4]; ABCA4-/- mouse model) is given as “prevented the gradual loss of visual function”, the “reduction of accumulation of A2E” value [4, 8] is given as 80% and the “reduction of accumulation of lipofuscin” value [4, 8] is given as 70%.

In the case of `CC1=C(/C=C/C(C)=C/C=C/C(C)=C/C(=O)Nc2ccc(O)cc2)C(C)(C)CCC1` [fenretinide], the side effects ([5]; oral) is listed as “night blindness, and mild reversible skin-dryness”, the “therapeutic effect in patients” value ([5]; patients already diagnosed with Stargardt or AMD) is listed as “did not confer a significant therapeutic effect” and the “formation of new LB” value (formation of new LB) is listed as “effective at slowing down the formation of new LB”.

For `OC[C@H]1O[C@@H]2O[C@H]3[C@H](O)[C@@H](O)[C@@H](O[C@H]4[C@H](O)[C@@H](O)[C@@H](O[C@H]5[C@H](O)[C@@H](O)[C@@H](O[C@H]6[C@H](O)[C@@H](O)[C@@H](O[C@H]7[C@H](O)[C@@H](O)[C@@H](O[C@H]8[C@H](O)[C@@H](O)[C@@H](O[C@H]9[C@H](O)[C@@H](O)[C@@H](O[C@H]1[C@H](O)[C@H]2O)O[C@@H]9CO)O[C@@H]8CO)O[C@@H]7CO)O[C@@H]6CO)O[C@@H]5CO)O[C@@H]4CO)O[C@@H]3CO` [gamma-cyclodextrin, Gamma-Cyclodextrin, reference compound], the “removal of lipofuscin bisretinoids (A2E)” value [1] was “did not extract A2E”.

For `COCCO[C@@H]1c2ccn3c(C)c(C)nc3c2N[C@H](c2ccccc2)[C@H]1O` [soprazan], the “elimination of lipofuscin from RPE cells” value [6] is given as “Successful elimination of lipofuscin from RPE cells”.

For `OC[C@H]1O[C@@H]2O[C@H]3[C@H](O)[C@@H](O)[C@@H](O[C@H]4[C@H](O)[C@@H](O)[C@@H](O[C@H]5[C@H](O)[C@@H](O)[C@@H](O[C@H]6[C@H](O)[C@@H](O)[C@@H](O[C@H]7[C@H](O)[C@@H](O)[C@@H](O[C@H]1[C@H](O)[C@H]2O)O[C@@H]7CO)O[C@@H]6CO)O[C@@H]5CO)O[C@@H]4CO)O[C@@H]3CO` [α-Cyclodextrin, reference compound], the “removal of lipofuscin bisretinoids (A2E)” value [1] was “did not extract A2E”.

In the case of `OC[C@H]1O[C@@H]2O[C@H]3[C@H](O)[C@@H](O)[C@@H](O[C@H]4[C@H](O)[C@@H](O)[C@@H](O[C@H]5[C@H](O)[C@@H](O)[C@@H](O[C@H]6[C@H](O)[C@@H](O)[C@@H](O[C@H]7[C@H](O)[C@@H](O)[C@@H](O[C@H]8[C@H](O)[C@@H](O)[C@@H](O[C@H]1[C@H](O)[C@H]2O)O[C@@H]8CO)O[C@@H]7CO)O[C@@H]6CO)O[C@@H]5CO)O[C@@H]4CO)O[C@@H]3CO` [β-Cyclodextrin, reference compound], the “removal of lipofuscin bisretinoids (A2E)” value [1] is reported as “did not extract A2E”.

For Methyl β-Cyclodextrin, the “localisation of LB after treatment” value (A2E-loaded RPE cultures; 7.5 mM, 100× objective, FIGS. 4A-4B) was “LB was expelled outside the cells”, the “LB fluorescence in cells after treatment” value (A2E-loaded RPE cultures; 24 hours, 100× magnification, FIG. 3B) was “completely devoid of the turquoise fluorescence” and the “removal of lipofuscin bisretinoids (A2E)” value [1] was “promoted removal of lipofuscin bisretinoids from retinal cells”. For the same compound, the “dose that removed most of the detectable LB deposits” value ([1]; 24 hrs, FIG. 3A) was 10 to 20 µM, the “dose dependence of A2E removal” value ([1]; 24 hrs, increasing doses, FIG. 3A) was “dose-dependent” and the “A2E removal compared to untreated control at lowest tested dose” value ([1]; 24 hrs, lowest tested dose, FIG. 3A) was “about 75%”. For the same compound, the “reduction … (significance, unpaired T-test)” value [2] was “did not significantly reduce the amount of lipofuscin”, the “total LB extracted from retinas” value [2] was 18.2% and the “distribution” value [3] was “all A2E fluorescence that was absent from cells was present in supernatants”.

In the case of “Sulfobutyl ether β-Cyclodextrin [Sulfo Butyl Ether β-Cyclodextrin]”, the “removal of lipofuscin bisretinoids (A2E)” value [1] is reported as “promoted removal of lipofuscin bisretinoids from retinal cells”, the “overall structure of the retinas” value ([7]; H&E cross sections, FIG. 11B) is reported as “remained intact” and the “integrity of the photoreceptor layer (ONL)” value ([7]; ONL thickness, FIG. 11A) is reported as “did not compromise the integrity of the photoreceptor layer (ONL)”. The “reduction … (significance, unpaired T-test)” value [2] was “effective”, the “total LB extracted from retinas” value [2] was 42.6% and the “visual acuity (Spatial Frequency response)” value (visual acuity of mice) was “well tolerated showing indistinguishable SF from water treated and non-injected negative controls”. The “distribution” value [3] was “all A2E fluorescence that was absent from cells was present in supernatants”.

Reference: US20220118002A1, “COMPOSITIONS OF MATTER WITH ACTIVITY TO REMOVE LIPOFUSCIN FROM RETINAL CELLS” (Cornell University, priority 2019, published 2022)
